From patent publication US20230285405A1, “Pharmaceuticals for Treating or Preventing Nidoviruses and Picornaviruses” (priority 2020, published 2023)
Like-named read-outs stand apart in the source and are kept apart here.

Tests used:
[1] = system: SARS-CoV-2; assay: microbe, parasite or virus in culture; assay type: cell-based, SARS-CoV-2 (nCoV/Washington/1/2020)
[2] = system: A549-mRuby cells; assay: Drug screening: effect on cell growth (cell number day 4 / day 0); conditions: 10 μM drug; for Growth_1: number of cells at day 4 divided by number of cells at day 0 / toxic_1: repeat #1; for Growth_2: number of cells at day 4 divided by number of cells at day 0 / toxic_2: repeat #2
In short: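 A549 cells carrying an H2B-mRuby reporter were infected with OC43 at MOI 0.3 for 1 h at 33° C, then given drug at 10 μM final. Cell numbers were counted by imaging at day 0 and again at day 4 after 4 days at 33° C, 5% CO2, with the screen run twice.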

[3] = system: OC43; assay: Drug screening: OC43 nucleoprotein staining in infected A549-mRuby cells; assay type: cell-based, human beta coronavirus OC43; conditions: for activity at 10 µM: Betacoronavirus 1, OC43, 96 h
In short: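 A549 cells expressing H2B-mRuby infected with OC43 at MOI 0.3 for 1 h at 33° C, then drugs added at 10 μM final and incubated 4 days at 33° C. Viral nucleoprotein immunostained and imaged; intensity normalized to cell number and no-drug controls (=100). Hits reduced staining >3 SD in both repeats without toxicity.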

[4] = system: OC43; assay: Dose-response analysis of OC43 infection; assay type: cell-based, human beta coronavirus OC43
Description: Dose-response analysis of OC43 infection was done similarly to the drug screening, except cells were seeded at a concentration of 5,000 cells per well and the media contained 2% BCS instead of 10% BCS. OC43 staining was performed 2 days after infection and analyzed similarly to what was described for the drug screening. A sigmoid fit was used to extract EC50 values using Matlab.

[5] = biological target: T1, SARS-CoV-2 3CLpro (Severe acute respiratory syndrome coronavirus 2, UniProt P0DTD1); assay type: cell-based
T1 construct: the SARS-CoV-2 main protease (also known as 3CLpro, Mpro and nsp5); expressed in transfected cells; host or cells: 293T cells

[6] = 10 μM drug, MOI 0.3, 4 days, OC43 staining normalized to no-drug controls, mean of the two screen repeats, read-out: OC43_mean
[7] = 10 μM drug, MOI 0.3, 4 days, normalized to no-drug controls in the same plate, repeat #1, read-out: OC43_1: % staining of OC43 in screen repeat #1
[8] = 10 μM drug, MOI 0.3, 4 days, normalized to no-drug controls in the same plate, repeat #2, read-out: OC43_2: % staining of OC43 in screen repeat #2
[9] = Betacoronavirus 1, OC43, 48 h, read-out: EC50 OC43, A549-mRuby cells, staining 2 days after infection
[10] = Severe acute respiratory syndrome coronavirus 2; read-out: EC50 SARS2
[11] = 10 μM drug, MOI 0.3, 4 days, normalized to no-drug controls in the same plate, repeat #1
[12] = 10 μM drug, MOI 0.3, 4 days, normalized to no-drug controls in the same plate, repeat #2
[13] = A549-mRuby cells, staining 2 days after infection, read-out: EC50 OC43
[14] = 10 μM drug, MOI 0.3, 4 days, OC43 staining normalized to no-drug controls, mean of the two screen repeats

| Molecule | Growth_1: number of cells at day 4 divided by number of cells at day 0 [2] | toxic_1 [2] | Growth_2: number of cells at day 4 divided by number of cells at day 0 [2] | toxic_2 [2] | hit_1 ([3]; 10 μM drug, repeat #1) | hit_2 ([3]; 10 μM drug, repeat #2) | activity at 10 µM [3, 6] [%] | activity at 10 µM [3, 7] [%] | activity at 10 µM [3, 8] [%] | EC50 [4, 9] [µM] | EC50 [1, 10] [µM] | other results |
| --- | --- | --- | --- | --- | --- | --- | --- | --- | --- | --- | --- | --- |
| CNCCC=C1c2ccccc2CCc2ccccc21.O [Nortriptyline hydrochloride] | 4.2 | 0 | 3.1 | 0 | 1 | 1 | 19.6 | 25.2 | 14 | 7.5 | – | EC50 ([1]; Severe acute respiratory syndrome coronavirus 2, read-out: EC50 SARS2): 3.2 µM |
| Cc1nc2c([nH]1)CCN(C(=O)c1ccc(NC(=O)c3ccccc3-c3ccccc3)cc1)c1ccccc1-2.O [Conivaptan HCl] | 4.2 | 0 | 4.7 | 0 | 1 | 1 | 5.7 | 4.5 | 7 | 4.6 | 4 | 3CLpro activity: percentage of GFP-expressing cells (in words) [5]: statistically significant decrease |
| CCCCOC(=O)c1ccc(N)cc1 [Butamben] | 3.9 | 0 | 4.7 | 0 | 1 | 1 | 4.9 | 3.8 | 6.1 | 3.1 | > 10 | – |
| O=C(O)CCC(=O)O.O=C(O[C@H]1CN2CCC1CC2)N1CCc2ccccc2[C@@H]1c1ccccc1 [Solifenacin succinate] | 5.0 | 0 | 5.0 | 0 | 1 | 1 | – | – | – | – | 3.6 | activity at 10 µM ([3]; read-out: OC43_1: % staining of OC43 in screen repeat #1): 13%; activity at 10 µM ([3]; read-out: OC43_2: % staining of OC43 in screen repeat #2): 11.3%; activity at 10 µM ([3]; read-out: OC43_mean): 12.1%; EC50 ([4]; Betacoronavirus 1, OC43, 48 h, read-out: EC50 OC43): 4.8 µM |
| N#Cc1ccc2[nH]cc(CCCCN3CCN(c4ccc5oc(C(N)=O)cc5c4)CC3)c2c1.O [Vilazodone HCl] | 3.5 | 0 | 3.9 | 0 | 1 | 1 | 9.8 | 13 | 6.7 | 3.6 | 4.5 | 3CLpro activity: percentage of GFP-expressing cells (in words) [5]: statistically significant decrease |
| CCN(CC)CCOCCOC(=O)C1(c2ccccc2)CCCC1.O=C(O)CC(O)(CC(=O)O)C(=O)O [Pentoxyverine Citrate] | 5.0 | 0 | 5.7 | 0 | 1 | 1 | 9.3 | 10.8 | 7.7 | 5.5 | 3.6 | – |
| CCN(CCCCOC(=O)c1ccc(OC)c(OC)c1)C(C)Cc1ccc(OC)cc1.O (centres unmarked) [Mebeverine Hydrochloride] | 5.2 | 0 | 3.9 | 0 | 1 | 1 | 20 | 20.1 | 19.9 | 5 | 10 | – |
| Retapamulin | 4.3 | 0 | 4.1 | 0 | 1 | 1 | – | – | – | – | – | EC50 ([1]; read-out: EC50 SARS2): 8 µM; OC43_mean [3]: 12.2%; OC43_1: % staining of OC43 in screen repeat #1 [3, 11]: 11.7%; OC43_2: % staining of OC43 in screen repeat #2 [3, 12]: 12.6%; 3CLpro activity: percentage of GFP-expressing cells (in words) [5]: statistically significant decrease; EC50 [4, 13]: 4.5 µM |
| COc1ccc2cc1Oc1ccc(cc1)C[C@H]1c3c(cc4c(c3Oc3cc5c(cc3OC)CCN(C)[C@@H]5C2)OCO4)CCN1C [Cepharanthine] | 4.3 | 0 | 4.7 | 0 | 1 | 1 | 20.3 | 28.5 | 12.1 | 0.77 | 0.13 | – |
| CCCNCC(O)COc1ccccc1C(=O)CCc1ccccc1.O (centres unmarked) [Propafenone HCl] | 4.7 | – | 3.4 | – | 1 | 1 | 19.8 | 20.4 | 19.2 | 7.3 | 3.7 | – |
| Velpatasvir | 6.2 | 0 | 5.6 | 0 | 1 | 1 | – | – | – | – | – | EC50 ([1]; read-out: EC50 SARS2): > 10 µM; OC43_mean [3, 14]: 18.0%; OC43_1: % staining of OC43 in screen repeat #1 [3, 11]: 26.0%; OC43_2: % staining of OC43 in screen repeat #2 [3, 12]: 10.0%; EC50 [4, 13]: 2 µM |
| C[C@@H]1[C@H](O)[C@@H](C)/C=C/C=C/C=C/C=C/C=C/C=C/C=C/[C@H](O[C@@H]2O[C@H](C)[C@@H](O)[C@H](N)[C@@H]2O)C[C@@H]2O[C@](O)(C[C@@H](O)C[C@@H](O)[C@H](O)CC[C@@H](O)C[C@@H](O)CC(=O)O[C@H]1C)C[C@H](O)[C@H]2C(=O)O [Amphotericin B] | 4.3 | 0 | 5.8 | 0 | 1 | 1 | – | – | – | – | – | inhibition of SARS-CoV-2 infection (in words) [1]: did not inhibit SARS-CoV-2 infection; EC50 ([1]; read-out: EC50 SARS2): > 1 µM; OC43_mean [3, 14]: 6.6%; OC43_1: % staining of OC43 in screen repeat #1 [3, 11]: 1.5%; OC43_2: % staining of OC43 in screen repeat #2 [3, 12]: 11.8%; EC50 [4, 13]: 0.04 µM |
| COC(=O)N[C@H](C(=O)N1CCC[C@H]1c1ncc(-c2ccc3c(c2)O[C@@H](c2ccccc2)n2c-3cc3cc(-c4cnc([C@@H]5CCCN5C(=O)[C@@H](NC(=O)OC)C(C)C)[nH]4)ccc32)[nH]1)C(C)C [Elbasvir] | 4.7 | 0 | 5.3 | 0 | 1 | 1 | 20.1 | 18.8 | 21.4 | 0.17 | > 10 | inhibition of SARS-CoV-2 infection (in words) [1]: did not inhibit SARS-CoV-2 infection |
| CN1CCCC(n2nc(Cc3ccc(Cl)cc3)c3ccccc3c2=O)CC1.O (centres unmarked) [Azelastine HCl] | 4.1 | 0 | 3.2 | 0 | 1 | 1 | 19.1 | 19.6 | 18.5 | 3.7 | 2.4 | inhibition of SARS-CoV-2 infection (in words) [1]: inhibits; inhibition of OC43 infection (in words) ([4]; dose-response): inhibits |
| CCCCOC(=O)c1ccc(O)cc1 [Butylparaben] | 3.3 | 0 | 3.6 | 0 | 1 | 1 | 5.2 | 7 | 3.5 | 1.7 | > 10 | – |
